In patent US9810700B1, “Fluorogenic calcium ion indicators and methods of using the same” (AAT Bioquest, Inc., priority 2017, dated 2017):
≈ marks a conversion by molar mass, not a printed value.

Legend:
[1] = Water solubility comparison of PEGTA compounds and conventional BAPTA calcium indicator AM esters; assay type: physicochemical; conditions: PBS, AM ester; for solubility: aqueous buffer, 25° C., read-out: Water solubility at 25° C. (PEGTA Compound)
[2] = tested on: CHO cells stably transfected with muscarinic receptor 1; assay: Calcium flux assay, indicator AM esters loaded into cells, with or without probenecid; assay type: cell-based; conditions: probenecid is not used
Method: In some embodiments, the fluorescent ion indicators are used in a method to measure calcium flux. Cells (e.g., CHO cells) stably transfected with muscarinic receptor 1 are plated—e.g., at 60,000 cells per 100 μl per well in F12 with 5% FBS and 1% glutamine in a 96-well black wall/clear bottom Costar plate—and incubated (e.g., in 5% CO2 at 37° C. overnight). The growth medium is removed and the cells are incubated with a fluorescent ion indicator (e.g., with 100 μl/well of 1-8 μM Fluo-3 AM, Fluo-4 AM or one or more compounds selected from Compound 22, 23, 24, 28, 33, 34, 40, 41 or 188 in Hanks and HEPES buffer for 1 hour at 37° C., 5% CO2) with or without probenecid. Carbachol or ATP is added (e.g., 50 μl/well by NOVOstar, FlexStation or FLIPR) to achieve a final concentration.
Cells expressing a GPCR of interest that signals through calcium are pre-loaded with the indicator AM esters (such as Fluo-3 AM. Fluo-4 AM, Compounds 22, 23, 24, 28, 33, 34, 40, 41 or 188) which can cross cell membrane. […] When the sample cells are stimulated with screening compounds, the receptor triggers a release of intracellular calcium, which then greatly increases the fluorescence of the intracellular indicators. […]

CHO-K1 cells = assay: ATP-stimulated calcium response monitored with FlexStation; assay type: cell-based; conditions: in the absence of probenecid; compared with Fluo-4 AM
Method: (§1) CHO-K1 cells are seeded overnight at 50,000 cells per 100 μl per well in a 96-well black wall/clear bottom costar plate. The growth medium is removed, and the cells are incubated with 100 μl of Compound 24 and Fluo-4 AM at 5 μM in Hanks and Hepes buffer in the presence of 2.5 mM probenecid for 1 hour at 37° C., 5% CO2 incubator. ATP (10 μM) is added by FlexStation to stimulate cell calcium, and the time-dependent calcium response is monitored with FlexStation.
CHO-K1 cells are seeded overnight at 50,000 cells per 100 μl per well in a 96-well black wall/clear bottom costar plate. The growth medium is removed, and the cells are incubated with 100 μl of Compound 24 and Fluo-4 AM at 5 μM in Hanks and Hepes buffer for 2 hours at 25° C. ATP (50 μL/well) is added by FlexStation to achieve the final desired concentrations.
as §1, with “CHO-K” for “CHO-K1”, “FlexStation. […]” for “FlexStation.”

| Structure (SMILES) | solubility [1] | fluorescence intensity compared with the corresponding BAPTA compounds [2] | fluorescence intensity enhancement upon calcium stimulation (CHO-K1 cells) | Water solubility at 25° C. (BAPTA Compound) [1] | capability of detecting calcium [2] |
| --- | --- | --- | --- | --- | --- |
| CC(=O)OCOC(=O)CN(CCOCCOc1cc2c(cc1N(CC(=O)OCOC(C)=O)CC(=O)OCOC(C)=O)C(=O)OC21c2cc(F)c(OC(C)=O)cc2Oc2cc(OC(C)=O)c(F)cc21)CC(=O)OCOC(C)=O [Compound 22] | 1.63 µg/mL (≈ 1.49 µM) |  |  |  |  |
| CC(=O)OCOC(=O)CN(CCOCCOc1cc(-c2c3cc(F)c(=O)cc-3oc3cc(OCOC(C)=O)c(F)cc23)ccc1N(CC(=O)OCOC(C)=O)CC(=O)OCOC(C)=O)CC(=O)OCOC(C)=O [Compound 24] | 2.18 µg/mL (≈ 2.11 µM) | much greater than that of the corresponding BAPTA compounds | unexpected better fluorescence intensity enhancement |  |  |
| CC(=O)OCOC(=O)CN(CCOCCOc1cc(C2=C3C(C)=CC(C)=[N+]3[B-](F)(F)n3c(C)cc(C)c32)ccc1N(CC(=O)OCOC(C)=O)CC(=O)OCOC(C)=O)CC(=O)OCOC(C)=O [Compound 188] | 1.29 µg/mL (≈ 1.34 µM) |  |  |  |  |
| CC(=O)OCOC(=O)CN(CC(=O)OCOC(C)=O)c1ccc(C)cc1OCCOc1cc(-c2c3cc(F)c(=O)cc-3oc3cc(OCOC(C)=O)c(F)cc23)ccc1N(CC(=O)OCOC(C)=O)CC(=O)OCOC(C)=O [Fluo-4 AM, reference compound] |  |  |  | 1.26 μg/ml PBS | not capable of detecting calcium in some types of cells and tissues |
